Data on 24 molecules can be found in patent US7772245B2, “Inhibitors of histone deacetylase” (Miikana Therapeutics, Inc., priority 2005, dated 2010).

For one test, the system named is HDAC. Briefly: In vitro fluorescent histone deacetylase assay (Biomol HDAC fluorescent activity kit, HeLa cell nuclear extract). Format: biochemical. To be noted: 100 μM compound; HeLa cell nuclear extract as source of HDAC activity; 50 μM substrate, 10 min at room temperature. The procedure, abridged: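 HeLa nuclear extract as HDAC source with fluorogenic substrate at 50 μM final, reacting 10 min at room temperature before stop. Compounds serially diluted in assay buffer, final DMSO ≤2%; fluorescence read at ex 355 nm / em 460 nm.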

The next test concerns HCT116 cells. Briefly: Whole cell cytotoxicity assay: Sulforhodamine B. Format: cell-based. To be noted: Homo sapiens, HCT-116; 100 μM compound; 48 hours incubation with drug; Sulforhodamine B staining; read-out: % Inhibition of HCT116 cell growth @ 100 μM. A general note: Sulforhodamine B stains cellular protein and so reports cell mass.

In general, inhibition refers to the percentage by which the read-out fell short of the control. In the case of `O=C(NO)c1cnc(N2CCc3[nH]c4ccc(-c5cccc(CN6CCCCC6)c5)cc4c3C2)nc1` [Example 91, N-hydroxy-2-{8-[3-(piperidin-1-ylmethyl)phenyl]-1,3,4,5-tetrahydro-2H-pyrido[4,3-b]indol-2-yl}pyrimidine-5-carboxamide], the “% Inhibition of HDAC @ 100 μM” value in the test on HDAC came out at 100%. Further, the inhibition at 100 µM in the test with HCT116 cells amounted to 98.6%.

For the molecule `O=C(NO)c1cnc(N2CCc3[nH]c4ccc(-c5cccc(CN6CCC(CO)CC6)c5)cc4c3C2)nc1` [Example 93, N-hydroxy-2-{8-[3-((4-hydroxymethylpiperidin-1-yl)methyl)phenyl]-1,3,4,5-tetrahydro-2H-pyrido[4,3-b]indol-2-yl}pyrimidine-5-carboxamide], the “% Inhibition of HDAC @ 100 μM” value in the test with HDAC came out at 100%. In addition, the inhibition at 100 µM in the test with HCT116 cells turned out to be 98%.

In the case of `O=C(NO)c1cnc(N2CCc3[nH]c4ccc(-c5cccc(CN6CCSCC6)c5)cc4c3C2)nc1` [Example 94, N-hydroxy-2-{8-[3-(thiomorpholin-4-ylmethyl)phenyl]-1,3,4,5-tetrahydro-2H-pyrido[4,3-b]indol-2-yl}pyrimidine-5-carboxamide], in the test with HDAC, the “% Inhibition of HDAC @ 100 μM” value was found to be 99.7%. Moreover, the inhibition at 100 µM with HCT116 cells is 98.5%.

As to `O=C(NO)c1cnc(N2CCc3[nH]c4ccc(-c5cccc(CN(CCO)CCO)c5)cc4c3C2)nc1` [Example 95, N-hydroxy-2-{8-[3-(N,N-di(2-hydroxyethyl)aminomethyl)phenyl]-1,3,4,5-tetrahydro-2H-pyrido[4,3-b]indol-2-yl}pyrimidine-5-carboxamide], in the test with HDAC, the “% Inhibition of HDAC @ 100 μM” value turned out to be 100%. Further, in the test with HCT116 cells, the inhibition at 100 µM came to 98.2%.

In the case of `CN1CCN(Cc2cccc(-c3ccc4[nH]c5c(c4c3)CN(c3ncc(C(=O)NO)cn3)CC5)c2)CC1` [Example 96, N-hydroxy-2-{8-[3-((4-methylpiperazin-1-yl)methyl)phenyl]-1,3,4,5-tetrahydro-2H-pyrido[4,3-b]indol-2-yl}pyrimidine-5-carboxamide], in the test on HDAC, the “% Inhibition of HDAC @ 100 μM” value is 100%. Besides, the inhibition at 100 µM in the test on HCT116 cells came to 98.7%.

For `O=C(NO)c1cnc(N2CCc3[nH]c4ccc(-c5cccc(CN6CCCC6)c5)cc4c3C2)nc1` [Example 97, N-hydroxy-2-{8-[3-(pyrrolidin-1-ylmethyl)phenyl]-1,3,4,5-tetrahydro-2H-pyrido[4,3-b]indol-2-yl}pyrimidine-5-carboxamide], in the test with HDAC, the “% Inhibition of HDAC @ 100 μM” value worked out at 100%. Moreover, the inhibition at 100 µM in the test on HCT116 cells was determined as 98.1%.

Regarding `O=C(NO)c1cnc(N2CCc3[nH]c4ccc(-c5cccc(CN6CCNCC6)c5)cc4c3C2)nc1` [Example 99, N-hydroxy-2-{8-[3-(piperazin-1-ylmethyl)phenyl]-1,3,4,5-tetrahydro-2H-pyrido[4,3-b]indol-2-yl}pyrimidine-5-carboxamide], the “% Inhibition of HDAC @ 100 μM” value in the test with HDAC came to 99.9%. Besides, the inhibition at 100 µM in the test on HCT116 cells was found to be 93.8%.

For `CS(=O)(=O)N1CCN(Cc2cccc(-c3ccc4[nH]c5c(c4c3)CN(c3ncc(C(=O)NO)cn3)CC5)c2)CC1` [Example 100, N-hydroxy-2-{8-[3-((4-(methylsulfonyl)piperazin-1-yl)methyl)phenyl]-1,3,4,5-tetrahydro-2H-pyrido[4,3-b]indol-2-yl}pyrimidine-5-carboxamide], the “% Inhibition of HDAC @ 100 μM” value in the test on HDAC is on record as 100%. The inhibition at 100 µM in the test on HCT116 cells is 96.6%.

Take `CC(=O)N1CCN(Cc2cccc(-c3ccc4[nH]c5c(c4c3)CN(c3ncc(C(=O)NO)cn3)CC5)c2)CC1` [Example 101, N-hydroxy-2-{8-[3-((4-acetylpiperazin-1-yl)methyl)phenyl]-1,3,4,5-tetrahydro-2H-pyrido[4,3-b]indol-2-yl}pyrimidine-5-carboxamide]: the “% Inhibition of HDAC @ 100 μM” value in the test on HDAC worked out at 100%. In addition, the inhibition at 100 µM with HCT116 cells is 97.9%.

As to `O=C(NO)c1cnc(N2CCc3[nH]c4ccc(-c5ccc(CN6CCOCC6)cc5)cc4c3C2)nc1` [Example 104, N-hydroxy-2-{8-[4-(morpholin-4-ylmethyl)phenyl]-1,3,4,5-tetrahydro-2H-pyrido[4,3-b]indol-2-yl}pyrimidine-5-carboxamide], the “% Inhibition of HDAC @ 100 μM” value in the test on HDAC was found to be 100%. Moreover, the inhibition at 100 µM in the test with HCT116 cells is 92%.

Consider `CN1CCN(Cc2ccc(-c3ccc4[nH]c5c(c4c3)CN(c3ncc(C(=O)NO)cn3)CC5)cc2)CC1` [Example 106, N-hydroxy-2-{8-[4-((4-methylpiperazin-1-yl)methyl)phenyl]-1,3,4,5-tetrahydro-2H-pyrido[4,3-b]indol-2-yl}pyrimidine-5-carboxamide], for which the “% Inhibition of HDAC @ 100 μM” value in the test on HDAC was found to be 99.9%. In addition, the inhibition at 100 µM in the test with HCT116 cells was 98.3%.

Consider `O=C(NO)c1cnc(N2CCc3[nH]c4ccc(-c5ccc(CO)cc5)cc4c3C2)nc1` [Example 107, N-hydroxy-2-{8-[4-(hydroxymethyl)phenyl]-1,3,4,5-tetrahydro-2H-pyrido[4,3-b]indol-2-yl}pyrimidine-5-carboxamide], for which, in the test with HDAC, the “% Inhibition of HDAC @ 100 μM” value is 99.9%. Moreover, in the test on HCT116 cells, the inhibition at 100 µM came out at 92.7%.

For the molecule `CN1CCN(Cc2ccc(-c3ccc4[nH]c5c(c4c3)CN(c3ncc(C(=O)NO)cn3)CC5)o2)CC1` [Example 108, N-hydroxy-2-{8-[5-((4-methylpiperazin-1-yl)methyl)-2-furyl]-1,3,4,5-tetrahydro-2H-pyrido[4,3-b]indol-2-yl}pyrimidine-5-carboxamide], the “% Inhibition of HDAC @ 100 μM” value in the test with HDAC was 100%. Also, the inhibition at 100 µM with HCT116 cells was found to be 99.1%.

Regarding `O=C(NO)c1cnc(N2CCc3[nH]c4ccc(-c5ccc(CN6CCOCC6)o5)cc4c3C2)nc1` [Example 109, N-hydroxy-2-{8-[5-(morpholin-4-yl)methyl-2-furyl]-1,3,4,5-tetrahydro-2H-pyrido[4,3-b]indol-2-yl}pyrimidine-5-carboxamide], the “% Inhibition of HDAC @ 100 μM” value in the test on HDAC is reported as 100%. In the test with HCT116 cells, the inhibition at 100 µM came to 91.7%.

Turning to `CN1CCN(Cc2ccc(-c3ccc4[nH]c5c(c4c3)CN(c3ncc(C(=O)NO)cn3)CC5)s2)CC1` [Example 110, N-hydroxy-2-{8-[5-((4-methylpiperazin-1-yl)methyl)-thien-2-yl]-1,3,4,5-tetrahydro-2H-pyrido[4,3-b]indol-2-yl}pyrimidine-5-carboxamide], the “% Inhibition of HDAC @ 100 μM” value in the test on HDAC turned out to be 100%. Besides, the inhibition at 100 µM in the test on HCT116 cells turned out to be 98.7%.

Take `O=C(NO)c1cnc(N2CCc3[nH]c4cc(Br)ccc4c3C2)nc1` [Example 112, N-hydroxy-2-(7-bromo-1,3,4,5-tetrahydro-2H-pyrido[4,3-b]indol-2-yl)pyrimidine-5-carboxamide]: the “% Inhibition of HDAC @ 100 μM” value in the test on HDAC came to 99.9%. Also, the inhibition at 100 µM in the test with HCT116 cells was determined as 98.7%.

Turning to `COc1ccc2[nH]c3c(c2c1)CCN(c1ncc(C(=O)NO)cn1)CC3` [Example 113, N-hydroxy-2-(9-methoxy-1,4,5,6-tetrahydroazepino[4,5-b]indol-3(2H)-1-yl)pyrimidine-5-carboxamide], the “% Inhibition of HDAC @ 100 μM” value in the test with HDAC is 100%. Further, the inhibition at 100 µM with HCT116 cells is 98.7%.

As for `O=C(NO)c1cnc(N2CCc3[nH]c4ccc(-c5cccc(CN6CCOCC6)c5)cc4c3CC2)nc1` [Example 116, N-hydroxy-2-(9-[3-(morpholin-4-ylmethy)phenyl]-1,4,5,6-tetrahydroazepino[4,5-b]indol-3(2H)-1-yl)pyrimidine-5-carboxamide], in the test on HDAC, the “% Inhibition of HDAC @ 100 μM” value is 100%. Further, the inhibition at 100 µM in the test on HCT116 cells turned out to be 98.6%.

For the molecule `CN1CCN(Cc2cccc(-c3ccc4[nH]c5c(c4c3)CCN(c3ncc(C(=O)NO)cn3)CC5)c2)CC1` [Example 117, N-hydroxy-2-(9-[3-((4-methylpiperazin-1-yl)methy)phenyl]-1,4,5,6-tetrahydroazepino[4,5-b]indol-3(2H)-1-yl)pyrimidine-5-carboxamide], the “% Inhibition of HDAC @ 100 μM” value in the test with HDAC is 99.8%. Also, the inhibition at 100 µM in the test with HCT116 cells was 98.6%.

On to `O=C(NO)c1cnc(N2CCc3c(sc4ccccc34)C2)nc1` [Example 118, 2-(3,4-dihydro[1]benzothieno[2,3-c]pyridin-2(1H)-yl)-N-hydroxypyrimidine-5-carboxamide], for which the “% Inhibition of HDAC @ 100 μM” value with HDAC worked out at 99.7%. Besides, the inhibition at 100 µM in the test on HCT116 cells was 98.9%.

With `O=C(NO)c1cnc(N2CCc3c(oc4ccccc34)C2)nc1` [Example 119, 2-(3,4-dihydro[1]benzofuro[2,3-c]pyridin-2(1)-yl)-N-hydroxypyrimidine-5-carboxamide], the “% Inhibition of HDAC @ 100 μM” value in the test on HDAC is on record as 99.3%. Also, the inhibition at 100 µM in the test with HCT116 cells came out at 98.6%.

`O=C(NO)c1cnc(N2CCc3[nH]c4cc(-c5ccccc5)ccc4c3C2)nc1` [Example 120, N-hydroxy-2-{7-phenyl-1,3,4,5-tetrahydro-2H-pyrido[4,3-b]indol-2-yl}pyrimidine-5-carboxamide]: the “% Inhibition of HDAC @ 100 μM” value with HDAC is listed as 99.6%. Besides, the inhibition at 100 µM in the test on HCT116 cells is 97.6%.

In the case of `O=C(NO)c1cnc(N2CCc3[nH]c4ccccc4c(=O)c3C2)nc1` [Example 122, N-hydroxy-2-(10-oxo-3,4,5,10-tetrahydrobenzo[b]-1,6-naphthyridin-2(1H)-yl)pyrimidine-5-carboxamide], the “% Inhibition of HDAC @ 100 μM” value in the test with HDAC was 100%. For the same molecule, the inhibition at 100 µM with HCT116 cells turned out to be 44.4%.

Consider `CN1CCN(Cc2ccc3[nH]c4c(c3c2)CN(c2ncc(C(=O)NO)cn2)CC4)CC1` [Example 123, N-hydroxy-2-{8-[(4-methylpiperazin-1-yl)methyl]-1,3,4,5-tetrahydro-2H-pyrido[4,3-b]indol-2-yl}pyrimidine-5-carboxamide], for which, in the test on HDAC, the “% Inhibition of HDAC @ 100 μM” value worked out at 100%. Further, in the test with HCT116 cells, the inhibition at 100 µM was 97%.
